These results are taken from patent publication US20090318381A1, “Halogenated alkyl di-and trisaccharides, pharmaceutical formulations, diagnostic kits and methods of treatment” (priority 2006, published 2009).

The test system of assay [1] is Pseudomonas aeruginosa. The assay can be described thus: Antimicrobial testing, time-kill log reduction against P. aeruginosa. The conditions noted are these: for Concentration (CFU/mL): 5 ml of 1% Compound 3 solution + 20 ml PBS pH 7.2; for Log Reduction: log inoculum verification minus sample log recovery. The assay is classed as cell-based. The method, then:
(§1) The preferred embodiment was tested for antimicrobial activity using the following procedure.
(§2) A 1% solution of Compound 3 was prepared in DPBS (Dulbecco's phosphate buffered saline). A 25 ml mixture of the 1% Compound 3 and PBS (phosphate buffered saline, pH 7.2 was prepared by mixing 5 ml of the 1% Compound 3 solution and 20 ml of the PBS.
(§3) A 10 ml aliquot of the above mixture was placed into each of two sterile test tubes. One test tube was inoculated with 0.1 ml of S. aureus and the other with 0.1 ml of P. aeruginosa, such that there was a final concentration of 10^6 colony-forming units (CFU)/0.1 mls.
(§4) A various time points, 1.0 ml of each inoculated test sample were removed, diluted 10× with 0.45% saline and plated on trypticase soy agar (TSA) plates.
(§5) Samples of PBS was treated in the same manner. At time points 5 mins and 60 mins, two 1 ml samples were taken and diluted 1 × and one spiked with a 0.1 ml aliquot of the S. aureus and the other spiked with 0.1 ml of the P aeruginosa.
(§6) The plates were incubated at 30-35° C. for not less than 24 hours. Concentration of CFU in the samples taken at each time point were enumerated by standard methods. The log reduction was calculated for each time period and organism. The log reduction was calculated using the formula: Log reduction=Log inoculums verification−sample log recovery.

Assay [2] concerns Staphylococcus aureus. Briefly: Antimicrobial testing, time-kill log reduction against S. aureus. It is filed as cell-based. The note with it: for Concentration (CFU/mL): 5 ml of 1% Compound 3 solution + 20 ml PBS pH 7.2; for Log Reduction: log inoculum verification minus sample log recovery. As to the method: as §1, §2, §3, §4, §5, §6
In assay [3] the test system is Listeria Monocytogenes. The conditions noted are these: in conjunction with certain organic acids; J. Applied Bacteriol. 1996; cited from earlier work.
Assay [4] deals with Adenovirus Infection of Bladder Epithelium. The conditions noted are these: pretreatment agent; Ramesh et al., Molecular Therapy 2004; cited from earlier work.
[5] abbreviates: antimicrobial if greater than 5 log reduction.

For the compound `CCCCCCCCCCCC(=O)OCC1O[C@H](O[C@@]2(CCl)O[C@H](CCl)C(O)C2O)C(O)C(O)[C@H]1Cl` (stereo in doubt) [Compound 3, 1′,6′-Dichloro-1′,6′-dideoxy-β-D-fructofuranosyl-4-chloro-4-deoxy-6-O-monododecanoate-α-D-galactopyranoside], the “Concentration (CFU/mL)” value is 1.53 × 10^6 CFU/mL in assay [1] (5 minutes); 1.1 × 10^6 CFU/mL in assay [1] (15 minutes); 1.21 × 10^6 CFU/mL in assay [1] (30 minutes); “TNTC*” in assay [1] (60 minutes); 6.9 × 10^5 CFU/mL in assay [2] (5 minutes); 4.3 × 10^4 CFU/mL in assay [2] (15 minutes). The figures for the “Concentration (CFU/mL)” value in assay [2] (30 minutes) and in assay [2] (60 minutes) were 1.41 × 10^4 CFU/mL and 2.9 × 10^3 CFU/mL, respectively. For the same compound, the “Log Reduction” value in assay [1] (5 minutes) turned out to be 3.5; in assay [1] (15 minutes), 3.7; in assay [1] (30 minutes) it was 3.6; in assay [2] (5 minutes), 4; in assay [2] (15 minutes), 5.2; in assay [2] (30 minutes), 5.7. Moreover, the “Log Reduction” value in assay [2] (60 minutes) turned out to be 6.3. The antimicrobial effect result in assay [1] (setting [5]) is listed as “not”; in assay [2] (setting [5]), “has antimicrobial effect”.
Take sucrose monolaurate: the “anti-microbial against Listeria Monocytogenes” value in assay [3] was “effective anti-microbial”. Besides, the “increasing the effectiveness of gene and oncolytic virus therapy” value in assay [4] is given as “effective”.
With `CCCCCCCCCCCCO[C@@H]1O[C@H](CO)[C@@H](O[C@H]2O[C@H](CO)[C@@H](O)[C@H](O)[C@H]2O)[C@H](O)[C@H]1O` [dodecyl maltoside], the “increasing the effectiveness of gene and oncolytic virus therapy” value in assay [4] is reported as “effective”.
